In patent US20260042731A1, “(2,4-DICHLOROPHENOXY)ACETIC ACID ANALOGS” (CORTEVA AGRISCIENCE LLC, priority 2022, published 2026):
Read-outs that look alike come from different tables or passages of the source.

Legend:
[1] = test system: glyphosate resistant Conyza canadensis (L.) (ERICA), horseweed; assay: Postemergence herbicide evaluation, growth of Conyza canadensis (ERICA); type: in vivo; details: for pest or weed control at 280 g/ha / pest or weed control at 560 g/ha: Erigeron canadensis, post-emergence, percent reduction in plant size relative to untreated control, read-out: Ave. ERICA; for Ave. ERICA: percent reduction in plant size vs untreated control
[2] = test system: weeds (ABUTH, AMATA, AMBEL, CHEAL, ERICA); assay: Postemergence herbicide evaluation, overall average % weed control across ABUTH, AMATA, AMBEL, CHEAL, ERICA; type: in vivo; details: post-emergence, average over the five weeds, read-out: Overall Ave % Weed Control; for pest or weed control at 280 g/ha: 280 g ae/ha; for pest or weed control at 560 g/ha: 560 g ae/ha
[3] = Volatility of compounds measured by thermogravimetric analysis (TGA); type: physicochemical
[4] = test system: Amaranthus rudis (AMATA), tall water hemp; assay: Postemergence herbicide evaluation, growth of Amaranthus rudis (AMATA); type: in vivo; details: for pest or weed control at 280 g/ha / pest or weed control at 560 g/ha: Amaranthus tuberculatus, post-emergence, percent reduction in plant size relative to untreated control, read-out: Ave. AMATA; for Ave. AMATA: percent reduction in plant size vs untreated control
[5] = test system: Chenopodium album (CHEAL), common lambsquarters; assay: Postemergence herbicide evaluation, growth of Chenopodium album (CHEAL); type: in vivo; details: for pest or weed control at 280 g/ha / pest or weed control at 560 g/ha: Chenopodium album, post-emergence, percent reduction in plant size relative to untreated control, read-out: Ave. CHEAL; for Ave. CHEAL: percent reduction in plant size vs untreated control
[6] = test system: Abutilon theophrasti (ABUTH), velvetleaf; assay: Postemergence herbicide evaluation, growth of Abutilon theophrasti (ABUTH); type: in vivo; details: for pest or weed control at 280 g/ha / pest or weed control at 560 g/ha: Abutilon theophrasti, post-emergence, percent reduction in plant size relative to untreated control, read-out: AVE. ABUTH; for AVE. ABUTH: percent reduction in plant size vs untreated control
[7] = test system: Glycine max (Enlist E3 traited soybeans, GLXMA)
[8] = test system: Ambrosia artemisiifolia (AMBEL), common ragweed; assay: Postemergence herbicide evaluation, growth of Ambrosia artemisiifolia (AMBEL); type: in vivo; details: for pest or weed control at 280 g/ha / pest or weed control at 560 g/ha: Ambrosia artemisiifolia, post-emergence, percent reduction in plant size relative to untreated control, read-out: AVE. AMBEL; for AVE. AMBEL: percent reduction in plant size vs untreated control
[9] = test system: weeds ABUTH, AMATA, AMBEL, CHEAL, ERICA; assay: Postemergence herbicide evaluation, overall average % weed control across ABUTH, AMATA, AMBEL, CHEAL and ERICA; type: in vivo; details: average over five weeds

Cc1ccc(S(=O)(=O)NC(=O)COc2ccc(Cl)cc2Cl)cc1 [Compound D5] gave a pest or weed control at 280 g/ha ([1]; 168 h, 280 g ae/ha, 7 DAA) of 63%, a pest or weed control at 560 g/ha ([1]; 168 h, 560 g ae/ha, 7 DAA) of 53% and a pest or weed control at 280 g/ha ([1]; 336 h, 280 g ae/ha, 14 DAA) of 78%. It also gave a pest or weed control at 560 g/ha ([1]; 336 h, 560 g ae/ha, 14 DAA) of 75%, a pest or weed control at 280 g/ha ([1]; 504 h, 280 g ae/ha, 21 DAA) of 73% and a pest or weed control at 560 g/ha ([1]; 504 h, 560 g ae/ha, 21 DAA) of 68%. The pest or weed control at 280 g/ha ([2]; 168 h, 7 DAA) was 56%, the pest or weed control at 560 g/ha ([2]; 168 h, 7 DAA) was 61% and the pest or weed control at 280 g/ha ([2]; 336 h, 14 DAA) was 63%. It also gave a pest or weed control at 560 g/ha ([2]; 336 h, 14 DAA) of 70%, a pest or weed control at 280 g/ha ([2]; 504 h, 21 DAA) of 59% and a pest or weed control at 560 g/ha ([2]; 504 h, 21 DAA) of 63%. For the same molecule, the “TGA Data (rate of weight loss, volatility)” value [3] was 0.02 µg/min, the pest or weed control at 280 g/ha ([4]; 168 h, 280 g ae/ha, 7 DAA) was 73% and the pest or weed control at 560 g/ha ([4]; 168 h, 560 g ae/ha, 7 DAA) was 73%. It also gave a pest or weed control at 280 g/ha ([4]; 336 h, 280 g ae/ha, 14 DAA) of 78%, a pest or weed control at 560 g/ha ([4]; 336 h, 560 g ae/ha, 14 DAA) of 75% and a pest or weed control at 280 g/ha ([4]; 504 h, 280 g ae/ha, 21 DAA) of 75%. It also gave a pest or weed control at 560 g/ha ([4]; 504 h, 560 g ae/ha, 21 DAA) of 73%, a pest or weed control at 280 g/ha ([5]; 168 h, 280 g ae/ha, 7 DAA) of 65% and a pest or weed control at 560 g/ha ([5]; 168 h, 560 g ae/ha, 7 DAA) of 73%. It also gave a pest or weed control at 280 g/ha ([5]; 336 h, 280 g ae/ha, 14 DAA) of 70%, a pest or weed control at 560 g/ha ([5]; 336 h, 560 g ae/ha, 14 DAA) of 73% and a pest or weed control at 280 g/ha ([5]; 504 h, 280 g ae/ha, 21 DAA) of 65%. It also gave a pest or weed control at 560 g/ha ([5]; 504 h, 560 g ae/ha, 21 DAA) of 68%, a pest or weed control at 280 g/ha ([6]; 168 h, 280 g ae/ha, 7 DAA) of 30% and a pest or weed control at 560 g/ha ([6]; 168 h, 560 g ae/ha, 7 DAA) of 40%. It also gave a pest or weed control at 280 g/ha ([6]; 336 h, 280 g ae/ha, 14 DAA) of 23%, a pest or weed control at 560 g/ha ([6]; 336 h, 560 g ae/ha, 14 DAA) of 35% and a pest or weed control at 280 g/ha ([6]; 504 h, 280 g ae/ha, 21 DAA) of 25%. The pest or weed control at 560 g/ha ([6]; 504 h, 560 g ae/ha, 21 DAA) was 25%, the “AVE. GLXMA” value ([7]; 280 g ae/ha, 7 DAA, Enlist E3 soybeans, percent reduction in plant size relative to untreated control) was 4% and the “AVE. GLXMA” value ([7]; 280 g ae/ha, 14 DAA, Enlist E3 soybeans, percent reduction in plant size relative to untreated control) was 2%. For the same molecule, the “AVE. GLXMA” value ([7]; 280 g ae/ha, 21 DAA, Enlist E3 soybeans, percent reduction in plant size relative to untreated control) was 3%, the “AVE. GLXMA” value ([7]; 560 g ae/ha, 7 DAA, Enlist E3 soybeans, percent reduction in plant size relative to untreated control) was 9% and the “AVE. GLXMA” value ([7]; 560 g ae/ha, 14 DAA, Enlist E3 soybeans, percent reduction in plant size relative to untreated control) was 5%. For the same molecule, the “AVE. GLXMA” value ([7]; 560 g ae/ha, 21 DAA, Enlist E3 soybeans, percent reduction in plant size relative to untreated control) was 5%, the pest or weed control at 280 g/ha ([8]; 168 h, 280 g ae/ha, 7 DAA) was 48% and the pest or weed control at 560 g/ha ([8]; 168 h, 560 g ae/ha, 7 DAA) was 65%. It also gave a pest or weed control at 280 g/ha ([8]; 336 h, 280 g ae/ha, 14 DAA) of 68%, a pest or weed control at 560 g/ha ([8]; 336 h, 560 g ae/ha, 14 DAA) of 90% and a pest or weed control at 280 g/ha ([8]; 504 h, 280 g ae/ha, 21 DAA) of 58%. For the same molecule, the pest or weed control at 560 g/ha ([8]; 504 h, 560 g ae/ha, 21 DAA) was 85%.

In the case of CC(C)CCCCCOC(=O)COc1ccc(Cl)cc1Cl [Isooctyl Ester, 2,4-D-isoctyl, reference compound], the “Overall Ave % Weed Control” value ([9]; 280 g ae/ha, 7 DAA) is reported as 80.5%, the “Overall Ave % Weed Control” value ([9]; 280 g ae/ha, 14 DAA) is reported as 89% and the “Overall Ave % Weed Control” value ([9]; 280 g ae/ha, 21 DAA) is reported as 91.3%. For the same molecule, the “Overall Ave % Weed Control” value ([9]; 560 g ae/ha, 7 DAA) was 78%, the “Overall Ave % Weed Control” value ([9]; 560 g ae/ha, 14 DAA) was 94.2% and the “Overall Ave % Weed Control” value ([9]; 560 g ae/ha, 21 DAA) was 95.6%. The “Ave. ERICA” value ([1]; 280 g ae/ha, 7 DAA) was 85%, the “Ave. ERICA” value ([1]; 280 g ae/ha, 14 DAA) was 100% and the “Ave. ERICA” value ([1]; 280 g ae/ha, 21 DAA) was 98%. The “Ave. ERICA” value ([1]; 560 g ae/ha, 7 DAA) was 85%, the “Ave. ERICA” value ([1]; 560 g ae/ha, 14 DAA) was 98.5% and the “Ave. ERICA” value ([1]; 560 g ae/ha, 21 DAA) was 99.5%. For the same molecule, the “Ave. AMATA” value ([4]; 280 g ae/ha, 7 DAA) was 80%, the “Ave. AMATA” value ([4]; 280 g ae/ha, 14 DAA) was 92.5% and the “Ave. AMATA” value ([4]; 280 g ae/ha, 21 DAA) was 65%. For the same molecule, the “Ave. AMATA” value ([4]; 560 g ae/ha, 7 DAA) was 85%, the “Ave. AMATA” value ([4]; 560 g ae/ha, 14 DAA) was 87.5% and the “Ave. AMATA” value ([4]; 560 g ae/ha, 21 DAA) was 85%. For the same molecule, the “Ave. CHEAL” value ([5]; 280 g ae/ha, 7 DAA) was 82.5%, the “Ave. CHEAL” value ([5]; 280 g ae/ha, 14 DAA) was 95% and the “Ave. CHEAL” value ([5]; 280 g ae/ha, 21 DAA) was 96%. For the same molecule, the “Ave. CHEAL” value ([5]; 560 g ae/ha, 7 DAA) was 77.5%, the “Ave. CHEAL” value ([5]; 560 g ae/ha, 14 DAA) was 96.5% and the “Ave. CHEAL” value ([5]; 560 g ae/ha, 21 DAA) was 93.5%. For the same molecule, the “AVE. ABUTH” value ([6]; 280 g ae/ha, 7 DAA) was 72.5%, the “AVE. ABUTH” value ([6]; 280 g ae/ha, 14 DAA) was 80% and the “AVE. ABUTH” value ([6]; 280 g ae/ha, 21 DAA) was 97.5%. For the same molecule, the “AVE. ABUTH” value ([6]; 560 g ae/ha, 7 DAA) was 77.5%, the “AVE. ABUTH” value ([6]; 560 g ae/ha, 14 DAA) was 98.5% and the “AVE. ABUTH” value ([6]; 560 g ae/ha, 21 DAA) was 100%. The “AVE. GLXMA” value ([7]; 280 g ae/ha, 7 DAA, Enlist E3 soybean, percent reduction in plant size vs untreated control) was 0%, the “AVE. GLXMA” value ([7]; 280 g ae/ha, 14 DAA, Enlist E3 soybean, percent reduction in plant size vs untreated control) was 0% and the “AVE. GLXMA” value ([7]; 280 g ae/ha, 21 DAA, Enlist E3 soybean, percent reduction in plant size vs untreated control) was 0%. The “AVE. GLXMA” value ([7]; 560 g ae/ha, 7 DAA, Enlist E3 soybean, percent reduction in plant size vs untreated control) was 0%, the “AVE. GLXMA” value ([7]; 560 g ae/ha, 14 DAA, Enlist E3 soybean, percent reduction in plant size vs untreated control) was 0% and the “AVE. GLXMA” value ([7]; 560 g ae/ha, 21 DAA, Enlist E3 soybean, percent reduction in plant size vs untreated control) was 0%. The “AVE. AMBEL” value ([8]; 280 g ae/ha, 7 DAA) was 82.5%, the “AVE. AMBEL” value ([8]; 280 g ae/ha, 14 DAA) was 77.5% and the “AVE. AMBEL” value ([8]; 280 g ae/ha, 21 DAA) was 100%. The “AVE. AMBEL” value ([8]; 560 g ae/ha, 7 DAA) was 65%, the “AVE. AMBEL” value ([8]; 560 g ae/ha, 14 DAA) was 90% and the “AVE. AMBEL” value ([8]; 560 g ae/ha, 21 DAA) was 100%.
